Data from ChEMBL document CHEMBL1141934, “Comparison of ligand-based and structure-based 3D-QSAR approaches: a case study on (aryl-)bridged 2-aminobenzonitriles inhibiting HIV-1 reverse transcriptase” (J Med Chem, 2005).

Biological target: Human immunodeficiency virus type 1 reverse transcriptase (Human immunodeficiency virus 1, UniProt Q72547)
Experiment: Inhibitory concentration against Reverse transcriptase

IC50 [µM]	Structure (SMILES)
9.77	N#Cc1ccccc1[S+]([O-])c1cccc(N)c1C#N (configuration not stated)
0.0295	N#Cc1c(N)cccc1S(=O)(=O)c1ccc2ccccc2c1
